In assay [1] the target is T1, AAK1 (Homo sapiens, UniProt Q2M2I8).
T1 construct: HA; expressed in transfected cells; host or cells: HEK293F
Put plainly: P81 filter plate assay. The note with it: full-length human AAK1, Mu2 substrate. It is filed as biochemical.

In assay [2] the target is T1, AAK1. Put plainly: HEK281 cell-based assay (phospho-mu2 Western blot in transfected HEK293F cells). The note with it: 3 hours incubation, read-out: CBA IC50. Put shortly:
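HEK293F cells co-transfected with full-length human AAK1/HA and Flag/AP2M1 were treated next day with 5 compound concentrations (3-fold dilutions) in DMEM+0.5% FBS for 3 hours at 37° C. Lysates were Western blotted for phospho-mu2, with total mu2 detected by anti-Flag.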
On the technique in general: A western blot detects proteins with antibodies after separation by electrophoresis.

SMILES strings stand for the structures. Where only a bound is given, the exact number is not on record here.

From patent US8969565B2, “Imidazo[1,2-b]pyridazine-based compounds, compositions comprising them, and methods of their use” (Lexicon Pharmaceuticals, Inc., priority 2012, dated 2015) come the findings set out here.

T1 sequence (Q2M2I8 1-863 isoform Q2M2I8-2): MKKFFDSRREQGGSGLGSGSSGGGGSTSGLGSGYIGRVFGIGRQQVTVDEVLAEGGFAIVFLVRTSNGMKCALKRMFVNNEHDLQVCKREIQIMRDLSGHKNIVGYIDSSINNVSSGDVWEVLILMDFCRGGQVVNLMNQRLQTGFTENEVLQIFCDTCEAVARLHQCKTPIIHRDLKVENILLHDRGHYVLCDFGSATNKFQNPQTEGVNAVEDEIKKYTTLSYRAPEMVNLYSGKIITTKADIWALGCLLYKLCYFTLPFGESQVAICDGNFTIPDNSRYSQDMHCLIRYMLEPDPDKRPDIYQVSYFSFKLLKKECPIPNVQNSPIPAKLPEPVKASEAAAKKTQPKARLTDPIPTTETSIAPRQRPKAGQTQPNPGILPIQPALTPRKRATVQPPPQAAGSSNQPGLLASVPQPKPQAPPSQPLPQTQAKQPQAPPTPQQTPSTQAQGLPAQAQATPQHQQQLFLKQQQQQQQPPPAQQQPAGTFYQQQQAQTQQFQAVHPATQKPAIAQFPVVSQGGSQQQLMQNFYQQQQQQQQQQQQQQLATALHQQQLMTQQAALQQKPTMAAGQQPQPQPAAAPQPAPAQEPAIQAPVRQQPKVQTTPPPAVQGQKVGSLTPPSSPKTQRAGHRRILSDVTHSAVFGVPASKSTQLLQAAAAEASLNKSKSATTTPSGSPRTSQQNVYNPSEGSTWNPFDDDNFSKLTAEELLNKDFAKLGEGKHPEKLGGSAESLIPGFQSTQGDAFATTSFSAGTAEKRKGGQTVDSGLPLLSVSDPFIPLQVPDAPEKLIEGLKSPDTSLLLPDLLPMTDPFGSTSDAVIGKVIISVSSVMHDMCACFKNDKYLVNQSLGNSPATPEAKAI

For the compound `CC(C)(C)CCN1C(=O)CC[C@H]1CNc1ccc2ncc(Br)n2n1` [(S)-5-(((3-bromoimidazo[1,2-b]pyridazin-6-yl)amino)methyl)-1-(3,3-dimethylbutyl)pyrrolidin-2-one], the results for the IC50 at AAK1 [1] and at AAK1 [2] were not above 10 nM and not above 100 nM, respectively.
With `COc1ccccc1-c1cnc2ccc(NC[C@@H]3CCCN3C(=O)NC(C)(C)C)nn12` [(S)-N-(tert-butyl)-2-(((3-(2-methoxyphenyl)imidazo[1,2-b]pyridazin-6-yl)amino)methyl)pyrrolidine-1-carboxamide], the IC50 (commonly the midpoint of a concentration-inhibition curve) is not above 10 nM against AAK1 [1] and not above 100 nM at AAK1 [2].
Turning to `CC(C)(C)NC(=O)N1CCC[C@H]1CNc1ccc2ncc(-c3ccncc3)n2n1` [(S)-N-(tert-butyl)-2-(((3-(pyridin-4-yl)imidazo[1,2-b]pyridazin-6-yl)amino)methyl)pyrrolidine-1-carboxamide], the IC50 is not above 10 nM at AAK1 [1] and not above 100 nM at AAK1 [2].
The corresponding values for `CC(C)(C)NC(=O)N1CCC[C@H]1CNc1ccc2ncc(-c3ccccc3)n2n1` [(S)-N-(tert-butyl)-2-(((3-phenylimidazo[1,2-b]pyridazin-6-yl)amino)methyl)pyrrolidine-1-carboxamide] are not above 10 nM and not above 100 nM.
The corresponding values for `COc1ccccc1-c1cnc2ccc(NC[C@@H]3CCCN3C(=O)NC3CCCC3)nn12` [(S)-N-cyclopentyl-2-(((3-(2-methoxyphenyl)imidazo[1,2-b]pyridazin-6-yl)amino)methyl)pyrrolidine-1-carboxamide] are not above 10 nM and not above 1000 nM.
The corresponding values for `CC(C)(C)CNC(=O)N1CCC[C@H]1CNc1ccc2ncc(-c3ccccc3)n2n1` [(S)-N-neopentyl-2-(((3-phenylimidazo[1,2-b]pyridazin-6-yl)amino)methyl)pyrrolidine-1-carboxamide] are not above 10 nM and not above 100 nM.
`CC(C)(C)OC(=O)N1CCC[C@H]1CNc1ccc2ncc(C(F)F)n2n1` [(S)-Tert-butyl 2-(((3-(difluoromethyl)imidazo[1,2-b]pyridazin-6-yl)amino)methyl)pyrrolidine-1-carboxylate]: the IC50 on AAK1 [1] is not above 10 nM; at AAK1 [2], not above 1000 nM.
The like results for `COc1ccccc1-c1cnc2ccc(NC[C@@H]3CCCN3C(=O)OC3CCC3)nn12` [(S)-cyclobutyl 2-(((3-(2-methoxyphenyl)imidazo[1,2-b]pyridazin-6-yl)amino)methyl)pyrrolidine-1-carboxylate] were, in that order, not above 10 nM and not above 100 nM.
The like results for `O=C(OC1CCC1)N1CCC[C@H]1CNc1ccc2ncc(-c3ccncc3)n2n1` [(S)-cyclobutyl 2-(((3-(pyridin-4-yl)imidazo[1,2-b]pyridazin-6-yl)amino)methyl)pyrrolidine-1-carboxylate] were, in that order, not above 10 nM and not above 10 nM.
The corresponding values for `O=C(OC1CCC1)N1CCC[C@H]1CNc1ccc2ncc(Br)n2n1` [(S)-cyclobutyl 2-(((3-bromoimidazo[1,2-b]pyridazin-6-yl)amino)methyl)pyrrolidine-1-carboxylate] are not above 10 nM and not above 100 nM.
Consider `NCc1ccc(-c2cnc3ccc(NC[C@@H]4CCCN4C(=O)OC4CCCC4)nn23)cc1` [(S)-cyclopentyl 2-(((3-(4-(aminomethyl)phenyl)imidazo[1,2-b]pyridazin-6-yl)amino)methyl)pyrrolidine-1-carboxylate], for which the IC50 against AAK1 [1] and at AAK1 [2] was not above 10 nM throughout.
For the compound `O=C(OC1CCCC1)N1CCC[C@H]1CNc1ccc2ncc(-c3ccncc3)n2n1` [(S)-cyclopentyl 2-(((3-(pyridin-4-yl)imidazo[1,2-b]pyridazin-6-yl)amino)methyl)pyrrolidine-1-carboxylate], the IC50 at AAK1 [1] and at AAK1 [2] was not above 10 nM in each case.
Consider `O=C(OC1CCCC1)N1CCC[C@H]1CNc1ccc2ncc(Br)n2n1` [(S)-cyclopentyl 2-(((3-bromoimidazo[1,2-b]pyridazin-6-yl)amino)methyl)pyrrolidine-1-carboxylate], for which the IC50 against AAK1 [1] and at AAK1 [2] was not above 10 nM throughout.
As to `O=C(OC1CCCC1)N1CCC[C@H]1CNc1ccc2ncc(-c3ccccc3)n2n1` [(S)-cyclopentyl 2-(((3-phenylimidazo[1,2-b]pyridazin-6-yl)amino)methyl)pyrrolidine-1-carboxylate], the IC50 is not above 10 nM against AAK1 [1] and not above 100 nM on AAK1 [2].
As to `[2H]C([2H])([2H])Oc1ncccc1-c1cnc2ccc(N3CC[C@H](N(C)C(=O)OCC)C3)nn12` [(S)-ethyl (1-(3-(2-(trideuteromethoxy)pyridin-3-yl)imidazo[1,2-b]pyridazin-6-yl)pyrrolidin-3-yl)(methyl)carbamate], the concentration for half-maximal inhibition (IC50) was not above 10 nM against AAK1 [1] and not above 100 nM on AAK1 [2].
The corresponding values for `CCOC(=O)N(C)[C@H]1CCN(c2ccc3ncc(-c4cc(C)cnc4OC)n3n2)C1` [(S)-ethyl (1-(3-(2-methoxy-5-methylpyridin-3-yl)imidazo[1,2-b]pyridazin-6-yl)pyrrolidin-3-yl)(methyl)carbamate] are not above 10 nM and not above 100 nM.
The like results for `CCOC(=O)N(C)[C@H]1CCN(c2ccc3ncc(-c4cccnc4OC)n3n2)C1` [(S)-ethyl (1-(3-(2-methoxypyridin-3-yl)imidazo[1,2-b]pyridazin-6-yl)pyrrolidin-3-yl)(methyl)carbamate] were, in that order, not above 10 nM and not above 100 nM.
The corresponding values for `CCOC(=O)N(C)[C@H]1CCN(c2ccc3ncc(-c4cc(F)ccc4OC)n3n2)C1` [(S)-ethyl (1-(3-(5-fluoro-2-methoxyphenyl)imidazo[1,2-b]pyridazin-6-yl)pyrrolidin-3-yl)(methyl)carbamate] are not above 10 nM and not above 100 nM.
As for `CCOC(=O)N(C)[C@H]1CCN(c2ccc3ncc(-c4cc(F)cnc4OC)n3n2)C1` [(S)-ethyl (1-(3-(5-fluoro-2-methoxypyridin-3-yl)imidazo[1,2-b]pyridazin-6-yl)pyrrolidin-3-yl)(methyl)carbamate], the results for the 50% inhibitory concentration (IC50) at AAK1 [1] and at AAK1 [2] were not above 10 nM and not above 100 nM, respectively.
Regarding `COc1ncccc1-c1cnc2ccc(N(C)C[C@@H]3CCCN3C(=O)OC(C)C)nn12` [(S)-isopropyl 2-(((3-(2-methoxypyridin-3-yl)imidazo[1,2-b]pyridazin-6-yl)(methyl)amino)methyl)pyrrolidine-1-carboxylate], the concentration for half-maximal inhibition (IC50) on AAK1 [1] and on AAK1 [2] was not above 10 nM in each case.
Regarding `COc1ncccc1-c1cnc2ccc(NC[C@@H]3CCCN3C(=O)OC(C)C)nn12` [(S)-isopropyl 2-(((3-(2-methoxypyridin-3-yl)imidazo[1,2-b]pyridazin-6-yl)amino)methyl)pyrrolidine-1-carboxylate], the 50% inhibitory concentration (IC50) at AAK1 [1] and on AAK1 [2] was not above 10 nM throughout.
`CC(C)OC(=O)N1CCC[C@H]1CNc1ccc2ncc(C#N)n2n1` [(S)-isopropyl 2-(((3-cyanoimidazo[1,2-b]pyridazin-6-yl)amino)methyl)pyrrolidine-1-carboxylate]: the IC50 on AAK1 [1] is not above 10 nM; on AAK1 [2], not above 1000 nM.
The corresponding values for `COc1ccc(-c2cnc3ccc(N4CC[C@H](N(C)C(=O)OC(C)C)C4)nn23)c(OC)n1` [(S)-isopropyl (1-(3-(2,6-dimethoxypyridin-3-yl)imidazo[1,2-b]pyridazin-6-yl)pyrrolidin-3-yl)(methyl)carbamate] are not above 10 nM and not above 100 nM.
